Data as given in publication PMC6695355, “Alanine Scanning Studies of the Antimicrobial Peptide Aurein 1.2” (Probiotics and Antimicrobial Proteins, 2018).
Values after ≈ are worked out from the molar mass of the structure shown. Where a SMILES comes first, the peptide text is derived from it.

What was measured:
[1] = system: S. aureus ATCC 25923 biofilm formation; assay type: cell-based, Staphylococcus aureus; details: ATCC 25923, 24 h
Method in brief: (§1)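 Broth microdilution (CLSI), 1–512 μg/mL, 37 °C; S. aureus 0.5 × 10^5 CFU/mL MHB 18 h; C. albicans 2 × 10^3 CFU/mL RPMI-1640 24 h; MIC = no visible growth. Biofilm: 24 h preformed, PBS-washed, compound 24 h (MBEC) or compound + inoculum 24 h (MBIC); resazurin 1 h, cut-off ≤10%.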

[2] = system: S. aureus ATCC 25923 biofilm; assay type: cell-based, Staphylococcus aureus; details: ATCC 25923, 24 h
Method in brief: as §1

S. aureus ATCC 25923 = assay type: cell-based, Staphylococcus aureus; details: ATCC 25923, 18 h
Method in brief: as §1

[3] = system: E. faecalis PCM 2673 biofilm formation; assay type: cell-based, Enterococcus faecalis; details: 24 h
Method in brief: (§2)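 Broth microdilution per CLSI, 1–512 μg/mL; bacteria 0.5 × 10^5 CFU/mL in MHB, 37 °C 18 h; C. albicans 2 × 10^3 CFU/mL in RPMI-1640, 24 h; MIC = lowest concentration visibly inhibiting growth. MBEC: 24-h biofilms, PBS-rinsed, compound 24 h at 37 °C, resazurin read after 1 h. MBIC: compound with inoculum 24 h, then resazurin 1 h; cut-off ≤10% reduction versus controls.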

[4] = system: E. faecalis PCM 2673 biofilm; assay type: cell-based, Enterococcus faecalis; details: 24 h
Method in brief: as §2

E. faecalis PCM 2673 = assay type: cell-based, Enterococcus faecalis; details: PCM 2673, 18 h
Method in brief: as §2

[5] = system: E. coli ATCC 25922 biofilm formation; assay type: cell-based, Escherichia coli; details: ATCC 25922, 24 h
Method in brief: as §2

[6] = system: E. coli ATCC 25922 biofilm; assay type: cell-based, Escherichia coli; details: ATCC 25922, 24 h
Method in brief: as §2

E. coli ATCC 25922 = assay type: cell-based, Escherichia coli; details: ATCC 25922, 18 h
Method in brief: as §2

[7] = system: P. aeruginosa ATCC 9027 biofilm formation; assay type: cell-based, Pseudomonas aeruginosa; details: ATCC 9027, 24 h
Method in brief: as §2

[8] = system: P. aeruginosa ATCC 9027 biofilm; assay type: cell-based, Pseudomonas aeruginosa; details: ATCC 9027, 24 h
Method in brief: as §2

P. aeruginosa ATCC 9027 = assay type: cell-based, Pseudomonas aeruginosa; details: ATCC 9027, 18 h
Method in brief: as §2

[9] = system: C. albicans ATCC 10231 biofilm formation; assay type: cell-based, Candida albicans; details: ATCC 10231, 24 h
Method in brief: as §1

[10] = system: C. albicans ATCC 10231 biofilm; assay type: cell-based, Candida albicans; details: ATCC 10231, 24 h
Method in brief: as §1

C. albicans ATCC 10231 = assay type: cell-based, Candida albicans; details: ATCC 10231, 24 h
Method in brief: as §1

[11] = system: human red blood cells (RBCs); assay: Hemolysis assay; assay type: cell-based; details: red cells of human, 1 h
Method in brief: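 Fresh EDTA-anticoagulated human erythrocytes were PBS-washed and used at 4% (v/v) with peptide at 1–256 μg/mL in PBS for 1 h at 37 °C. Hemoglobin release in the supernatant was read at 540 nm. PBS set 0% and 1% Triton X-100 set 100% hemolysis; run in triplicate.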

in vitro = in vitro ADME; details: bovine, serum
Method in brief: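 Peptides incubated in 25% (v/v) fetal bovine serum in PBS at 37 °C, quenched with ice-cold acetonitrile at t0 and 6 h. Intact peptide quantified by RP-HPLC-MS in selected ion recording mode; % remaining = peak area at 6 h / peak area at t0.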

[12] = assay type: physicochemical; details: pH 7.4

Row | Compound | MBIC, S. aureus ATCC 25923 [1] [µg/mL] | MBEC, S. aureus ATCC 25923 [2] [µg/mL] | MIC, S. aureus ATCC 25923 (S. aureus ATCC 25923) [µg/mL] | MBIC, E. faecalis PCM 2673 [3] [µg/mL] | MBEC, E. faecalis PCM 2673 [4] [µg/mL] | MIC, E. faecalis PCM 2673 (E. faecalis PCM 2673) [µg/mL] | MBIC, E. coli ATCC 25922 [5] [µg/mL] | MBEC, E. coli ATCC 25922 [6] [µg/mL] | MIC, E. coli ATCC 25922 (E. coli ATCC 25922) [µg/mL] | MBIC, P. aeruginosa ATCC 9027 [7] [µg/mL] | MBEC, P. aeruginosa ATCC 9027 [8] [µg/mL] | MBIC, C. albicans ATCC 10231 [9] [µg/mL] | MBEC, C. albicans ATCC 10231 [10] [µg/mL] | MIC, C. albicans ATCC 10231 (C. albicans ATCC 10231) [µg/mL] | Percentage of hemolysis at 1 μg/mL [11] [%] | Percentage of hemolysis at 2 μg/mL [11] [%] | Percentage of hemolysis at 4 μg/mL [11] [%] | Percentage of hemolysis at 8 μg/mL [11] [%] | Percentage of hemolysis at 16 μg/mL [11] [%] | Percentage of hemolysis at 32 μg/mL [11] [%] | further results
1 | CC[C@H](C)[C@H](NC(=O)[C@H](CCCCN)NC(=O)[C@H](C)NC(=O)[C@@H](NC(=O)[C@@H](NC(=O)[C@H](CC(=O)O)NC(=O)[C@H](Cc1ccccc1)NC(=O)[C@H](CC(C)C)NC(=O)CN)[C@@H](C)CC)[C@@H](C)CC)C(=O)N[C@@H](C)C(=O)N[C@@H](CCC(=O)O)C(=O)N[C@@H](CO)C(=O)N[C@@H](Cc1ccccc1)C(N)=O [Peptide K7A] (H-GLFDIIAKIAESF-NH2) | > 512 | > 512 | > 512 | > 512 | > 512 | 512 (≈ 360 µM) | 64 | > 512 | > 512 | > 512 | > 512 | 4 | > 512 | > 512 | 0.2 | 0.1 | 0.0 | 0.0 | 0.1 | 3.4 | MIC, P. aeruginosa ATCC 9027 (P. aeruginosa ATCC 9027): > 512 µg/mL; Percentage of hemolysis at 64 μg/mL [11]: 0.7%; Percentage of hemolysis at 128 μg/mL [11]: 3.0%; Percentage of hemolysis at 256 μg/mL [11]: 4.6%; remaining at 6 h, 0.125 mg/mL (in vitro): 59%; Solubility in surfactant-free phosphate buffer [12]: poor solubility
2 | CC[C@H](C)[C@H](NC(=O)[C@H](C)NC(=O)[C@H](CCCCN)NC(=O)[C@@H](NC(=O)[C@@H](NC(=O)[C@H](CC(=O)O)NC(=O)[C@H](Cc1ccccc1)NC(=O)[C@H](CC(C)C)NC(=O)CN)[C@@H](C)CC)[C@@H](C)CC)C(=O)N[C@@H](C)C(=O)N[C@@H](CCC(=O)O)C(=O)N[C@@H](CO)C(=O)N[C@@H](Cc1ccccc1)C(N)=O [Peptide K8A] (H-GLFDIIKAIAESF-NH2) | > 512 | > 512 | > 512 | 128 | > 512 | 64 (≈ 45 µM) | 32 | > 512 | 128 (≈ 90 µM) | > 512 | > 512 | 4 | > 512 | 64 (≈ 45 µM) | 0.1 | 0.0 | 0.0 | 0.0 | 0.0 | 5.5 | MIC, P. aeruginosa ATCC 9027 (P. aeruginosa ATCC 9027): > 512 µg/mL; Percentage of hemolysis at 64 μg/mL [11]: 16.1%; Percentage of hemolysis at 128 μg/mL [11]: 49.3%; Percentage of hemolysis at 256 μg/mL [11]: 89.6%; remaining at 6 h, 0.125 mg/mL (in vitro): 36%; Solubility in surfactant-free phosphate buffer [12]: poor solubility
3 | CC[C@H](C)[C@H](NC(=O)[C@H](CCCCN)NC(=O)[C@H](CCCCN)NC(=O)[C@@H](NC(=O)[C@@H](NC(=O)[C@H](CC(=O)O)NC(=O)[C@H](Cc1ccccc1)NC(=O)[C@H](C)NC(=O)CN)[C@@H](C)CC)[C@@H](C)CC)C(=O)N[C@@H](C)C(=O)N[C@@H](CCC(=O)O)C(=O)N[C@@H](CO)C(=O)N[C@@H](Cc1ccccc1)C(N)=O [Peptide L2A] (H-GAFDIIKKIAESF-NH2) | > 512 | > 512 | > 512 | > 512 | > 512 | 512 (≈ 356 µM) | 512 | 512 | 256 (≈ 178 µM) | > 512 | > 512 | 8 | > 512 | 256 (≈ 178 µM) | 0.3 | 0.6 | 0.4 | 0.2 | 0.0 | 0.0 | MIC, P. aeruginosa ATCC 9027 (P. aeruginosa ATCC 9027): 512 µg/mL (≈ 356 µM); Percentage of hemolysis at 64 μg/mL [11]: 0.0%; Percentage of hemolysis at 128 μg/mL [11]: 0.0%; Percentage of hemolysis at 256 μg/mL [11]: 0.0%; remaining at 6 h, 0.125 mg/mL (in vitro): 6%
4 | CC[C@H](C)[C@H](NC(=O)[C@H](CCCCN)NC(=O)[C@H](CCCCN)NC(=O)[C@@H](NC(=O)[C@@H](NC(=O)[C@H](CC(=O)O)NC(=O)[C@H](Cc1ccccc1)NC(=O)[C@H](CC(C)C)NC(=O)CN)[C@@H](C)CC)[C@@H](C)CC)C(=O)N[C@@H](C)C(=O)N[C@@H](CCC(=O)O)C(=O)N[C@@H](C)C(=O)N[C@@H](Cc1ccccc1)C(N)=O [Peptide S12A] (H-GLFDIIKKIAEAF-NH2) | 32 | > 512 | 32 (≈ 21.9 µM) | 128 | 128 | 64 (≈ 43.7 µM) | 32 | > 512 | 64 (≈ 43.7 µM) | >512 | > 512 | 2 | 256 | 32 (≈ 21.9 µM) | 0.0 | 0.0 | 0.0 | 0.0 | 1.2 | 6.5 | Percentage of hemolysis at 64 μg/mL [11]: 12.0%; Percentage of hemolysis at 128 μg/mL [11]: 15.4%; Percentage of hemolysis at 256 μg/mL [11]: 23.5%; remaining at 6 h, 0.125 mg/mL (in vitro): 77%; Solubility in surfactant-free phosphate buffer [12]: poor solubility
5 | CC[C@H](C)[C@H](NC(=O)[C@H](CCCCN)NC(=O)[C@H](CCCCN)NC(=O)[C@@H](NC(=O)[C@@H](NC(=O)[C@H](CC(=O)O)NC(=O)[C@H](Cc1ccccc1)NC(=O)[C@H](CC(C)C)NC(=O)CN)[C@@H](C)CC)[C@@H](C)CC)C(=O)N[C@@H](C)C(=O)N[C@@H](CCC(=O)O)C(=O)N[C@@H](CO)C(=O)N[C@@H](Cc1ccccc1)C(N)=O [aurein 1.2] (H-GLFDIIKKIAESF-NH2) | 128 | 128 | 128 (≈ 86.5 µM) | 128 | > 512 | 64 (≈ 43.2 µM) | 128 | 64 | 64 (≈ 43.2 µM) | 128 | 512 | 2 | 256 | 32 (≈ 21.6 µM) | 0.0 | 0.1 | 0.0 | 0.0 | 0.4 | 0.5 | MIC, P. aeruginosa ATCC 9027 (P. aeruginosa ATCC 9027): 256 µg/mL (≈ 173 µM); Percentage of hemolysis at 64 μg/mL [11]: 4.5%; Percentage of hemolysis at 128 μg/mL [11]: 19.2%; Percentage of hemolysis at 256 μg/mL [11]: 58.8%; remaining at 6 h, 0.125 mg/mL (in vitro): 65%
